Source: patent US9938267B2, “Heterocyclic inhibitors of glutaminase” (Calithera Biosciences, Inc., priority 2011, dated 2018)
Converted amounts (≈) assume the structure as drawn.

target: recombinant form of Glutaminase 1 (GAC) (Homo sapiens, UniProt O94925); experiment: Recombinant enzyme assay (GAC, GDH-coupled absorbance, no preincubation); format: biochemical; settings: read-out: GAC Delta N2 IC50 no preinc
Description: Enzymatic reaction was started with the addition of 50 μL of enzyme solution (50 mM Tris-HCl pH 8.0, 0.2 mM EDTA, 150 mM K2HPO4, 0.1 mg/ml BSA, 1 mM DTT, 10 ppm antifoam, 4 units/ml GDH, 4 mM adenosine diphosphate, and 4 nM GAC) and read in a Molecular Devices M5 plate reader at 20° C. The plate reader was configured to read absorbance (λ=340 nm) in kinetic mode for 15 minutes. Data was recorded as milli-absorbance units per minute and slopes were compared to a control compound and a DMSO-only control on the same plate. Compounds with slopes less than the DMSO control were considered inhibitors and plate variability was assessed using the control compound.

Structure (SMILES)	IC50 [nM]
CC[C@](O)(C(=O)Nc1nnc(CCCCc2nnc(NC(=O)[C@@](O)(CC)c3ccccc3)s2)s1)c1ccccc1 (single isomer, unassigned) [Compound 144]	> 20000
O=C(Cc1nnc(CCSCCc2nnc(NC(=O)C3CCOCC3)s2)s1)C1CCOCC1 [Compound 108]	> 20000
O=C(Nc1nnc(CCCCc2nnc(NC(=O)C3COc4ccccc43)s2)s1)C1COc2ccccc21 (centres unmarked) [Compound 135]	300
O=C(N[C@@H](CO)C(=O)Nc1nnc(CCSCCc2nnc(NC(=O)[C@H](CO)NC(=O)OCc3ccccc3)s2)s1)OCc1ccccc1 [Compound 138]	750
CC(C)(C)c1ccc(CC(=O)Nc2nnc(CCCCc3nnc(NC(=O)Cc4ccc(C(C)(C)C)cc4)s3)s2)cc1 [Compound 191]	> 20000
CC(C)(C)OC(=O)Nc1ccc(CC(=O)Nc2nnc(CCCCc3nnc(NC(=O)Cc4ccc(NC(=O)OC(C)(C)C)cc4)s3)s2)cc1 [Compound 192]	> 20000
O=C(Cc1cc2ccccc2o1)Nc1nnc(CCSCCc2nnc(NC(=O)Cc3cc4ccccc4o3)s2)s1 [Compound 193]	3400
COc1cc(CC(=O)Nc2nnc(CCSCCc3nnc(NC(=O)Cc4cc(OC)cc(OC)c4)s3)s2)cc(OC)c1 [Compound 202]	180
O=C(Cc1ccc(Cl)s1)Nc1cnc(CCSCCc2nnc(NC(=O)Cc3ccc(Cl)s3)s2)s1 [Compound 206]	> 20000
O=C(Cc1cc2ccccc2s1)Nc1cnc(CCSCCc2nnc(NC(=O)Cc3cc4ccccc4s3)s2)s1 [Compound 207]	13000
CC1(C)O[C@@H](C(=O)Nc2nnc(CCCCc3nnc(NC(=O)[C@@H]4OC(C)(C)O[C@H]4c4ccccc4)s3)s2)[C@H](c2ccccc2)O1 [Compound 223]	> 20000
COc1cccc(CC(=O)Nc2nnc(CCSCc3nnc(NC(=O)Cc4cccc(OC)c4)s3)s2)c1 [Compound 250]	120
CCOc1ccccc1CC(=O)Nc1nnc(CCCCc2nnc(NC(=O)Cc3ccccc3OC)s2)s1 [Compound 300]	160
O=C(O)Cc1cccc(CC(=O)Nc2nnc(CCCCc3nnc(NC(=O)Cc4cccc(CC(=O)O)c4)s3)s2)c1 [Compound 313]	270
Nc1cccc(CC(=O)Nc2nnc(CCCCc3nnc(NC(=O)Cc4cccc(N)c4)s3)s2)c1 [Compound 329]	170
O=C(Cc1ccccc1)Nc1ccc(CCCCc2nnc(NC(=O)Cc3cccc(O)c3)s2)nn1 [Compound 337]	76

tested on: P493-6 (myc "on") cells; experiment: Cell proliferation assay (72 hrs, Cell Titer Glo or Viacount FACS); format: cell-based; settings: P493-6 (myc on) cells, 72 hrs; read-out: Cell prolif P493 IC50
Description: P493-6 (myc “on”) cells were maintained in growth media (RPMI-1640, 10% FBS, 2 mM glutamine, 100 units/ml Penicillin and 100 μg/ml streptomycin) at 37° C. with 5% CO2. For compound assay, P493-6 cells were plated in 96-well V-bottom plates on the day of compound addition in 50 μl of growth media at a cell density of 200,000 cells/ml (10,000 cells/well). Compounds were serially diluted in 100% DMSO at 200-times the final concentration. Compounds were diluted 100-fold into growth media and then 50 μl of this mixture was added to cell plates making the final concentration of DMSO 0.5%. Cells were incubated with compound for 72 hrs at 37° C. with 5% CO2 and analyzed for antiproliferative effects either by Cell Titer Glo (Promega) or FACS analysis using the Viacount (Millipore) kit on the Guava instrument.

Structure (SMILES)	IC50 [nM]
CC1(CC(=O)Nc2ccc(CCCCc3nnc(NC(=O)Cc4cccc(CNC(=O)OC(C)(C)C)c4)s3)nn2)COC(C)(C)OC1 [Compound 529]	160
CCCC(=O)OCN(C(=O)C(CO)c1cccc(CNC(=O)OC(C)(C)C)c1)c1nnc(CCCCc2ccc(NC(=O)Cc3ccccc3)nn2)s1 (centres unmarked) [Compound 567]	21
CC(C(=O)Nc1nnc(CCCCc2ccc(NC(=O)Cc3ccccc3)nn2)s1)c1ccc(F)c(CNC(=O)OC(C)(C)C)c1 (centres unmarked) [Compound 568]	28
CCNC(=O)CC(C)c1cccc(CC(=O)Nc2ccc(CCCCc3nnc(NC(=O)Cc4cccc(OC(F)(F)F)c4)s3)nn2)c1 (centres unmarked) [Compound 596]	330
O=C(Cc1ccc(OC(F)(F)F)cc1)Nc1ccc(CCCCc2nnc(NC(=O)Cc3ccccc3)s2)nn1 [Compound 615]	12
O=C(Cc1cccc(OC(F)(F)F)c1)Nc1ccc(CCCCc2nnc(NC(=O)Cn3c(CN4CCOCC4)nc4ccccc43)s2)nn1 [Compound 702]	310

same assay, conditions: P493-6, read-out: Cell prolif P493 72 h IC50; P493 cells, 72 h

Structure (SMILES)	IC50 [nM]
O=C(C[C@@H](O)c1ccccc1)Nc1nnc(CCSCCc2nnc(NC(=O)C[C@@H](O)C3CCCCC3)s2)s1 [Compound 126]	12000
CCOc1ccccc1CC(=O)Nc1nnc(CCCCc2nnc(NC(=O)Cc3ccccc3OC)s2)s1 [Compound 300]	160
CCOC(=O)Nc1nnc(CCCCc2nnc(NC(=O)Cc3ccccc3)s2)s1 [Compound 369]	1900

same assay, conditions: read-out: Cell prolif P493 72 h IC50; P493 cells, 72 h

Structure (SMILES)	IC50 [nM]
COC(C(=O)Nc1nnc(CCSCCc2nnc(NC(=O)C(OC)c3ccccc3)s2)s1)c1ccccc1 (centres unmarked) [Compound 67]	1800
O=C(Cc1cccc(OCCO)c1)Nc1nnc(CCSCCc2nnc(NC(=O)Cc3cccc(OCCO)c3)s2)s1 [Compound 236]	1400
O=C(Cc1cccs1)Nc1nnc(CCSCc2nnc(NC(=O)Cc3cccs3)s2)s1 [Compound 237]	250
O=C(Cc1cccc(OCCN2CCOCC2)c1)Nc1nnc(CCSCCc2nnc(NC(=O)Cc3cccc(OCCN4CCOCC4)c3)s2)s1 [Compound 240]	1300
O=C(CN1C(=O)OC[C@H]1c1ccccc1)Nc1nnc(CCSCCc2nnc(NC(=O)CN3C(=O)OC[C@H]3c3ccccc3)s2)s1 [Compound 243]	33000
CCOC(=O)Nc1nnc(CCCCc2nnc(NC(=O)Cc3ccccc3)s2)s1 [Compound 244]	1700
COc1ccccc1CC(=O)Nc1nnc(CCSCCc2nnc(NC(=O)C(CO)c3ccccc3OC)s2)s1 (centres unmarked) [Compound 246]	1600
Cc1cccc(CC(=O)Nc2nnc(CCSCCc3nnc(NC(=O)Cc4cccc(C)c4)s3)s2)c1 [Compound 247]	830
COc1ccccc1CC(=O)Nc1nnc(CCSCc2nnc(NC(=O)Cc3ccccc3OC)s2)s1 [Compound 249]	160
COc1cccc(CC(=O)Nc2nnc(CCSCc3nnc(NC(=O)Cc4cccc(OC)c4)s3)s2)c1 [Compound 250]	140
COc1cccc(C(CO)C(=O)Nc2nnc(CCCCc3nnc(NC(=O)C(CO)c4cccc(OC)c4)s3)s2)c1 (centres unmarked) [Compound 257]	73
COc1cccc(C(CO)C(=O)Nc2nnc(CCSCc3nnc(NC(=O)C(CO)c4cccc(OC)c4)s3)s2)c1 (centres unmarked) [Compound 258]	180
COc1cccc(CC(=O)Nc2nnc(CCSCCc3nnc(NC(=O)Cc4cccc(OC)c4OC)s3)s2)c1OC [Compound 259]	570
COc1cccc(CC(=O)Nc2nnc(CCCCc3nnc(NC(=O)Cc4cccc(OC)c4OC)s3)s2)c1OC [Compound 260]	84
CC(C(=O)Nc1nnc(CCSCCc2nnc(NC(=O)C(C)c3ccccc3Cl)s2)s1)c1ccccc1Cl (centres unmarked) [Compound 261]	2600
Cc1ccccc1C(C)C(=O)Nc1nnc(CCSCCc2nnc(NC(=O)C(C)c3ccccc3C)s2)s1 (centres unmarked) [Compound 262]	3100
COc1ccccc1CC(=O)Nc1nnc(CCCCc2nnc(NC(=O)Cc3ccccc3OC)s2)s1 [Compound 264]	10
O=C(Cc1cccc(OCCN2CCOCC2)c1)Nc1nnc(CCSCc2nnc(NC(=O)Cc3cccc(OCCN4CCOCC4)c3)s2)s1 [Compound 267]	640
O=C(Cc1ccc2ncccc2c1)Nc1nnc(CCSCCc2nnc(NC(=O)Cc3ccc4ncccc4c3)s2)s1 [Compound 268]	5400
O=C(Cc1ccc2ncccc2c1)Nc1nnc(CCCCc2nnc(NC(=O)Cc3ccc4ncccc4c3)s2)s1 [Compound 269]	520
O=C(Cc1cccc(Br)c1)Nc1nnc(CCSCCc2nnc(NC(=O)Cc3cccc(Br)c3)s2)s1 [Compound 270]	850
CC(C(=O)Nc1nnc(CCCCc2nnc(NC(=O)C(C)c3ccccc3Cl)s2)s1)c1ccccc1Cl (centres unmarked) [Compound 274]	680
CC(C)(C)OC(=O)N1CCN(Cc2cccc(CC(=O)Nc3nnc(CCSCc4nnc(NC(=O)Cc5cccc(CN6CCN(C(=O)OC(C)(C)C)CC6)c5)s4)s3)c2)CC1 [Compound 275]	340
O=C(Cc1cccc(-n2cccn2)c1)Nc1nnc(CCCCc2nnc(NC(=O)Cc3cccc(-n4cccn4)c3)s2)s1 [Compound 285]	140
O=C(O)Cc1cccc(CC(=O)Nc2nnc(CCCCc3nnc(NC(=O)Cc4cccc(CC(=O)O)c4)s3)s2)c1 [Compound 313]	94000
CC(C)(C)OC(=O)Nc1cccc(CC(=O)Nc2nnc(CCCCc3nnc(NC(=O)Cc4cccc(NC(=O)OC(C)(C)C)c4)s3)s2)c1 [Compound 327]	150
Nc1cccc(CC(=O)Nc2nnc(CCCCc3nnc(NC(=O)Cc4cccc(N)c4)s3)s2)c1 [Compound 329]	450
O=C(Cc1cccc(Cn2cccn2)c1)Nc1nnc(CCCCc2nnc(NC(=O)Cc3cccc(Cn4cccn4)c3)s2)s1 [Compound 362]	54
O=C(Cc1cccc(-n2ccnc2)c1)Nc1nnc(CCCCc2nnc(NC(=O)Cc3cccc(-n4ccnc4)c3)s2)s1 [Compound 363]	> 20000

tested on: not listed separately; experiment: Solubility (vortex mixed at room temperature, filtered, HPLC quantitation); format: physicochemical; settings: 10% CrEL/50 mM cit
Description: Ca. 1 mg portions of test article were combined with 120 μL solvent in wells of a 96×2 mL polypropylene plate. […] The contents of all wells were then filtered through a 0.45 μm GHP filter plate to yield clear filtrates. 5 μL of each filtrate was diluted into 100 μL DMF and vortex mixed to yield HPLC samples. Duplicate quantitation standards for each test article were prepared by diluting weighed portions of solid test article in measured volumes of DMF. 2 μL of each HPLC sample and quantitation standard were analyzed by HPLC using the method outlined in Table 5. Dissolved test article concentrations were calculated by peak area ratio against the appropriate quantitation standards.

Structure (SMILES)	Solubility [µg/mL]
CCCC(=O)OCN(C(=O)Cc1ccccc1)c1nnc(CCCCc2ccc(NC(=O)Cc3ccccc3)nn2)s1 [Compound 402]	157 (≈ 0.268 mM)

same assay, conditions: 20% HPBCD/50 mM cit

Structure (SMILES)	Solubility [µg/mL]
O=C(Cc1cccc(OC(F)(F)F)c1)Nc1ccc(CCCCc2nnc(NC(=O)[C@@H](O)c3ccccc3)s2)nn1 [Compound 703]	651 (≈ 1.11 mM)

same assay, conditions: Capryol 90

Structure (SMILES)	Solubility [µg/mL]
O=C(Cc1cccc(OC(F)(F)F)c1)Nc1ccc(CCCCc2nnc(NC(=O)Cc3ccccc3)s2)nn1 [Compound 585]	1744 (≈ 3.06 mM)

same assay, conditions: PEG400

Structure (SMILES)	Solubility [µg/mL]
CCCC(=O)OCN(C(=O)Cc1ccccc1)c1nnc(CCCCc2ccc(NC(=O)Cc3ccccc3)nn2)s1 [Compound 402]	30179 (≈ 51.4 mM)

same assay, conditions: PG

Structure (SMILES)	Solubility [µg/mL]
O=C(Cc1cccc(OC(F)(F)F)c1)Nc1ccc(CCCCc2nnc(NC(=O)C(O)c3cccc(Cl)c3)s2)nn1 (centres unmarked) [Compound 447]	8265 (≈ 13.3 mM)
